According to ChEMBL document CHEMBL5356973 (J Med Chem, 2023):
The source made the active and inactive calls. No cut-off for these calls is given here.

How the values were obtained:
Mus musculus [1] = assay: Antinociceptive activity in Kunming mouse assessed as changes in tail flick latency by measuring maximal possible effect at 26.1 nmol/kg, sc measured after 120 mins by tail-flick test; type: functional; details: 2 h
[2] = biological target: T1, Delta-type opioid receptor (Homo sapiens, UniProt P41143); assay: Agonist activity at DOR (unknown origin) transfected in CHO cells co-expressing Galphaq15 assessed as increase in calcium mobilization by Fluo-4AM dye based assay; type: functional, cell-based
T1 sequence (P41143 whole entry): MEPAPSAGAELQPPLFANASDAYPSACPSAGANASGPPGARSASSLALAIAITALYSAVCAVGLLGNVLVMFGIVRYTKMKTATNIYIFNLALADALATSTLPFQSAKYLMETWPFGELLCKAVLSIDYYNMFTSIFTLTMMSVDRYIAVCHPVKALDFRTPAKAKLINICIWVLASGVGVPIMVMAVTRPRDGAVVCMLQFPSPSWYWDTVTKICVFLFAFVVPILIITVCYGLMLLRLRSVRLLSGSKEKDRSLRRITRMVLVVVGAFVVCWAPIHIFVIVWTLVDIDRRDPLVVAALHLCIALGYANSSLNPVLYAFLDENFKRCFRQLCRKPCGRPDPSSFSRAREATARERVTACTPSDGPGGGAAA

Mus musculus [3] = assay: Antinociceptive activity in Kunming mouse assessed as changes in tail flick latency by measuring maximal possible effect at 26.1 nmol/kg, sc measured after 30 mins by tail-flick test; type: functional; details: 0.5 h
[4] = biological target: T1, Delta-type opioid receptor; assay: Agonist activity at DOR (unknown origin) transfected in CHO cells co-expressing Galphaq15 assessed as increase in calcium mobilization by measuring maximal efficacy by Fluo-4AM dye based assay relative to control; type: functional, cell-based; details: filed as agonist
Mus musculus [5] = assay: Antinociceptive activity in Kunming mouse assessed as changes in tail flick latency by measuring maximal possible effect at 26.1 nmol/kg, sc measured after 60 mins by tail-flick test; type: functional; details: 1 h
Mus musculus [6] = assay: Antinociceptive activity in Kunming mouse assessed as changes in tail flick latency at 26.1 nmol/kg, sc pretreated with naloxone methiodide at 5 nmol, icv for 10 mins followed by compound addition and measured for 360 mins by tail-flick test; type: functional, organism-based
Mu-type opioid receptor [7] = biological target: T2, Mu-type opioid receptor (Homo sapiens, UniProt P35372); assay: Agonist activity at MOR (unknown origin) transfected in CHO cells co-expressing Galphaq15 assessed as increase in calcium mobilization by Fluo-4AM dye based assay; type: functional, cell-based
T2 sequence (P35372 whole entry): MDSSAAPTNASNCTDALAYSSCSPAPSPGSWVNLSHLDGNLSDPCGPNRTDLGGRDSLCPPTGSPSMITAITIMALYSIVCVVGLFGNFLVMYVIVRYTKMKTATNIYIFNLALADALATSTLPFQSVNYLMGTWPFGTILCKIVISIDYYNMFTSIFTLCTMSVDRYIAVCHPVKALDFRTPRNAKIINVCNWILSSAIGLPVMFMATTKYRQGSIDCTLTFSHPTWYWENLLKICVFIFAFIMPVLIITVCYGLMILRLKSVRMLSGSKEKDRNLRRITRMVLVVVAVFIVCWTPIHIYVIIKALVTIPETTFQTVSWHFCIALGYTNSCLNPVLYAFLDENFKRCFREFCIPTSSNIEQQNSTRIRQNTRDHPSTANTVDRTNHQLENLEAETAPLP

[8] = biological target: T3, Kappa-type opioid receptor (Homo sapiens, UniProt P41145); assay: Agonist activity at KOR (unknown origin) transfected in CHO cells co-expressing Galphaq15 assessed as increase in calcium mobilization by measuring maximal efficacy by Fluo-4AM dye based assay relative to control; type: functional, cell-based; details: filed as agonist
T3 sequence (P41145 whole entry): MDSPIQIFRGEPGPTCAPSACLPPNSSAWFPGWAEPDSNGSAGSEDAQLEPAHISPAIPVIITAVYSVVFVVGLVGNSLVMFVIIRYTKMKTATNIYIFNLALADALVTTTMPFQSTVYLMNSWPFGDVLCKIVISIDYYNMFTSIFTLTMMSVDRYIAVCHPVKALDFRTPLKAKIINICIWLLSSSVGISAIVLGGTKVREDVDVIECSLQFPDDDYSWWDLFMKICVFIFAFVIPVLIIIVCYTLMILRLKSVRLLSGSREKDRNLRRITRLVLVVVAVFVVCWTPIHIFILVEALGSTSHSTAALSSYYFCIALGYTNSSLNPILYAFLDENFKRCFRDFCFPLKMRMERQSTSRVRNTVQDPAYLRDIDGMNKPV

Mu-type opioid receptor [9] = biological target: T2, Mu-type opioid receptor; assay: Agonist activity at MOR (unknown origin) transfected in CHO cells co-expressing Galphaq15 assessed as increase in calcium mobilization by measuring maximal efficacy by Fluo-4AM dye based assay relative to control; type: functional, cell-based; details: filed as agonist
[10] = biological target: T4, Neuropeptide FF receptor 2 (Homo sapiens, UniProt Q9Y5X5); assay: Agonist activity at NPFF2R (unknown origin) transfected in HEK293 cells co-expressing Galphaq15 assessed as increase in calcium mobilization by Fluo-4AM dye based assay; type: functional, cell-based
T4 sequence (Q9Y5X5 whole entry): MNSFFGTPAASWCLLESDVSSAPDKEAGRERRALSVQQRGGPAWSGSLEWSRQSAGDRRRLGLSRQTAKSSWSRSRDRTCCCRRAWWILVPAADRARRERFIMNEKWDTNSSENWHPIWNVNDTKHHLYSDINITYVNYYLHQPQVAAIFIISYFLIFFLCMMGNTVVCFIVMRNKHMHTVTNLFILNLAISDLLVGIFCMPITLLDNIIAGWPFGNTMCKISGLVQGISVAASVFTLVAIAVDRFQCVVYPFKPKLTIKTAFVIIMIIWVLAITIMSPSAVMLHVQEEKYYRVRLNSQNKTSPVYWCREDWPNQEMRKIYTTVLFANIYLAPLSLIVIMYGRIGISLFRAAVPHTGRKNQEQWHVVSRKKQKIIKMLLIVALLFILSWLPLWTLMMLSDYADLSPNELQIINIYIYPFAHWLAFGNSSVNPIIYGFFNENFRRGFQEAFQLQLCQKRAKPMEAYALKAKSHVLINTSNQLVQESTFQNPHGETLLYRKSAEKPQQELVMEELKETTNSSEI

[11] = Metabolic stability in mouse brain homogenate assessed as degradation half life at 10 mM measured upto 480 mins by RP-HPLC analysis; type: ADME, tissue-based
Mus musculus [12] = assay: Antinociceptive activity in Kunming mouse assessed as changes in tail flick latency by measuring maximal possible effect at 26.1 nmol/kg, sc measured after 240 mins by tail-flick test; type: functional; details: 4 h
[13] = biological target: T4, Neuropeptide FF receptor 2; assay: Agonist activity at NPFF2R (unknown origin) transfected in HEK293 cells co-expressing Galphaq15 assessed as increase in calcium mobilization by measuring maximal efficacy by Fluo-4AM dye based assay relative to control; type: functional, cell-based; details: filed as agonist
[14] = Metabolic stability in mouse plasma assessed as degradation half life at 10 mM measured upto 480 mins by RP-HPLC analysis; type: ADME, cell-free
Mus musculus [15] = assay: Antinociceptive activity in Kunming mouse assessed as changes in tail flick latency by measuring time duration of antinociceptive effect at 26.1 nmol/kg, sc by tail-flick test; type: functional
[16] = biological target: T3, Kappa-type opioid receptor; assay: Agonist activity at KOR (unknown origin) transfected in CHO cells co-expressing Galphaq15 assessed as increase in calcium mobilization by Fluo-4AM dye based assay; type: functional, cell-based
Mus musculus [17] = assay: Antinociceptive activity in Kunming mouse assessed as changes in tail flick latency by measuring maximal possible effect at 26.1 nmol/kg, sc measured after 20 mins by tail-flick test; type: functional
[18] = Agonist activity at NPFF1R (unknown origin) transfected in CHO cells co-expressing Galphaq15 assessed as increase in calcium mobilization by measuring maximal efficacy by Fluo-4AM dye based assay relative to control; type: functional, cell-based; details: Homo sapiens, filed as agonist
Mus musculus [19] = assay: Antinociceptive activity in Kunming mouse assessed as changes in tail flick latency by measuring maximal possible effect at 8.8 nmol/kg, sc measured after 30 mins by tail-flick test; type: functional; details: 0.5 h
Mus musculus [20] = assay: Antinociceptive activity in Kunming mouse assessed as changes in tail flick latency by measuring maximal possible effect at 8.8 nmol/kg, sc measured after 20 mins by tail-flick test; type: functional
Mus musculus [21] = assay: Antinociceptive activity in Kunming mouse assessed as changes in tail flick latency by measuring maximal possible effect at 8.8 nmol/kg, sc measured after 240 mins by tail-flick test; type: functional; details: 4 h
Mus musculus [22] = assay: Antinociceptive activity in Kunming mouse assessed as changes in tail flick latency at 8.8 nmol/kg, sc pretreated with naloxone methiodide at 5 nmol, icv for 10 mins followed by compound addition and measured for 360 mins by tail-flick test; type: functional, organism-based
Mus musculus [23] = assay: Antinociceptive activity in Kunming mouse assessed as changes in tail flick latency by measuring time duration of antinociceptive effect at 8.8 nmol/kg, sc by tail-flick test; type: functional
Mus musculus [24] = assay: Antinociceptive activity in Kunming mouse assessed as changes in tail flick latency by measuring maximal possible effect at 8.8 nmol/kg, sc measured after 60 mins by tail-flick test; type: functional; details: 1 h
Mus musculus [25] = assay: Antinociceptive activity in Kunming mouse assessed as changes in tail flick latency by measuring maximal possible effect at 8.8 nmol/kg, sc measured after 120 mins by tail-flick test; type: functional; details: 2 h

## CN1C(=O)CNC(=O)[C@H](N[C@@H](Cc2ccc(O)cc2)C(=O)O)CCCC/C=C/CC[C@@H](C(=O)N2CCC[C@H]2C(=O)N[C@@H](CCC(N)=O)C(=O)N[C@@H](CCCNC(=N)N)C(=O)N[C@@H](Cc2ccccc2)C(N)=O)NC(=O)[C@@H]1Cc1ccccc1
Mus musculus [1]
  MPE: 69%
[2]
  EC50: 13.4 nM
Mus musculus [3]
  MPE: 92.1%
[4]
  Emax: 73.8%
Mus musculus [5]
  MPE: 80.3%
Mus musculus [6]
  Activity: inactive
Mu-type opioid receptor [7]
  EC50: 1.2 nM
[8]
  Emax: 100%
Mu-type opioid receptor [9]
  Emax: 84.6%
[10]
  EC50: 9770 nM
[11]
  half-life at 10000 µM: 2.26 h
Mus musculus [12]
  MPE: 42.3%
[13]
  Emax: 125%
[14]
  half-life at 10000 µM: 1.01 h
Mus musculus [15]
  Time: 360 min
[16]
  EC50: 132 nM
Mus musculus [17]
  MPE: 91.9%
[18]
  Emax: 91.9%

## CN1C(=O)CNC(=O)[C@H](N[C@@H](Cc2ccc(O)cc2)C(=O)O)CCC/C=C/CC[C@@H](C(=O)N2CCC[C@H]2C(=O)N[C@@H](CCC(N)=O)C(=O)N[C@@H](CCCNC(=N)N)C(=O)N[C@@H](Cc2ccccc2)C(N)=O)NC(=O)[C@@H]1Cc1ccccc1
[2]
  EC50: 23.9 nM
Mus musculus [19]
  MPE: 96.5%
Mus musculus [20]
  MPE: 89.9%
[4]
  Emax: 98.2%
Mu-type opioid receptor [7]
  EC50: 7.6 nM
[8]
  Emax: 96.4%
Mus musculus [21]
  MPE: 47.8%
Mu-type opioid receptor [9]
  Emax: 102%
[10]
  EC50: 3110 nM
Mus musculus [22]
  Activity: inactive
Mus musculus [23]
  Time: 360 min
[11]
  half-life at 10000 µM: 1.83 h
[13]
  Emax: 118%
[14]
  half-life at 10000 µM: 0.537 h
[16]
  EC50: 273 nM
Mus musculus [24]
  MPE: 72.1%
Mus musculus [25]
  MPE: 74.2%
[18]
  Emax: 91.8%

## CN1C(=O)CNC(=O)[C@H](N[C@@H](Cc2ccc(O)cc2)C(=O)O)CCCC/C=C\CC[C@@H](C(=O)N2CCC[C@H]2C(=O)N[C@@H](CCC(N)=O)C(=O)N[C@@H](CCCNC(=N)N)C(=O)N[C@@H](Cc2ccccc2)C(N)=O)NC(=O)[C@@H]1Cc1ccccc1
Mus musculus [1]
  MPE: 73.5%
[2]
  EC50: 58.2 nM
Mus musculus [3]
  MPE: 93.7%
[4]
  Emax: 97.5%
Mus musculus [5]
  MPE: 77.4%
Mus musculus [6]
  Activity: inactive
Mu-type opioid receptor [7]
  EC50: 92.3 nM
[8]
  Emax: 128%
Mu-type opioid receptor [9]
  Emax: 109%
[10]
  EC50: 1080 nM
[11]
  half-life at 10000 µM: 1.95 h
Mus musculus [12]
  MPE: 36%
[13]
  Emax: 88.6%
[14]
  half-life at 10000 µM: 0.625 h
Mus musculus [15]
  Time: 360 min
[16]
  EC50: 503 nM
Mus musculus [17]
  MPE: 93%
[18]
  Emax: 105%

## CC(C)C[C@H](NC(=O)[C@@H](N)Cc1ccccc1)C(=O)N[C@@H](Cc1ccccc1)C(=O)N[C@@H](CCC(N)=O)C(=O)N1CCC[C@H]1C(=O)N[C@@H](CCC(N)=O)C(=O)N[C@@H](CCCN=C(N)N)C(=O)N[C@@H](Cc1ccccc1)C(N)=O
[18]
  Emax: 97.9%

## CN1C(=O)CNC(=O)[C@@H](N[C@@H](Cc2ccc(O)cc2)C(=O)O)C/C=C/CCCC[C@H](C(=O)N2CCC[C@H]2C(=O)N[C@@H](CCC(N)=O)C(=O)N[C@@H](CCCNC(=N)N)C(=O)N[C@@H](Cc2ccccc2)C(N)=O)NC(=O)[C@@H]1Cc1ccccc1
[2]
  EC50: 8920 nM
Mus musculus [19]
  MPE: 93.6%
Mus musculus [20]
  MPE: 92.8%
[4]
  Emax: 99.4%
Mu-type opioid receptor [7]
  EC50: 2900 nM
[8]
  Emax: 56.1%
Mus musculus [21]
  MPE: 41.6%
Mu-type opioid receptor [9]
  Emax: 81%
[10]
  EC50: 3760 nM
Mus musculus [22]
  Activity: inactive
Mus musculus [23]
  Time: 360 min
[11]
  half-life at 10000 µM: 1.47 h
[13]
  Emax: 40.9%
[14]
  half-life at 10000 µM: 0.13 h
[16]
  EC50: 1230 nM
Mus musculus [24]
  MPE: 79%
Mus musculus [25]
  MPE: 71.5%
[18]
  Emax: 124%
